From publication PMC3082517 (PLoS Biology, 2011)
Counter-ions that a name gives are not always drawn.

Assays:
p75^NTR [1] = biological target: T1, p75^NTR (Rattus norvegicus, UniProt P07174); assay: [3H]-DHEA saturation binding to membranes of HEK293 cells transfected with p75NTR cDNA; conditions: KD of [3H]-DHEA binding (Scatchard analysis), n = 3
T1 construct: expressed in transfected cells; host or cells: HEK293
T1 sequence (P07174 30-425): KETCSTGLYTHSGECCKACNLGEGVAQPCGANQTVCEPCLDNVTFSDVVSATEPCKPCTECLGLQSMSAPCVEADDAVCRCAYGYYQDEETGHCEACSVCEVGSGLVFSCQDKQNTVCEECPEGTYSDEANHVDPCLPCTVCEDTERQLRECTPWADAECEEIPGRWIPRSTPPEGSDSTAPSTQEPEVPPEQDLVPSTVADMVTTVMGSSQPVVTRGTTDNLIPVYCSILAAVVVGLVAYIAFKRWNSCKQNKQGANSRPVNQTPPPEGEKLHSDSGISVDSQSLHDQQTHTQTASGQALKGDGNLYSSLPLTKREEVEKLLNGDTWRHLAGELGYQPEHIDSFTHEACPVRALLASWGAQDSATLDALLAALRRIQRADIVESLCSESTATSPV

PC12 cell membranes = assay: [3H]-DHEA saturation binding to PC12 cell membranes; conditions: membranes from PC12 cells transfected with siRNA against GAPDH; listed as [^3H]-DHEA; read-out: KD of [3H]-DHEA binding (Scatchard analysis)
p75^NTR [2] = biological target: T1, p75^NTR; assay: [125I]-NGF displacement, HEK293^p75NTR cell membranes; format: binding; conditions: unpublished data
PC12 cells = assay: Apoptosis of serum deprived PC12 cells, FACS Annexin V-FITC and PI; format: cell-based; conditions: serum free, 100 nM, 24 h, n = 8; serum free control 53.5%±17.6%
Procedure: (§1) PC12 cells were cultured in 12-well plates, and 24 h later they were transfected with the si/shRNAs for TrkA and/or p75^NTR. […] Apoptosis was quantified 24 h later with annexin V-FITC and PI (BD Pharmingen) according to our protocol.

nnr5 cells = assay: Apoptosis of nnr5 cells (PC12 clone expressing only p75NTR); format: cell-based; conditions: DHEA 100 nM, NGF 100 ng/ml
Procedure: PC12 cells were obtained from LGC Promochem (LGC Standards GmbH, Germany) and nnr5 cells from Dr. C.F. Ibáñez (Karolinska Institute). Both cell types were grown in RPMI 1640 containing 2 mM L-glutamine, 15 mM HEPES, 100 units/ml penicillin, 0.1 mg/ml streptomycin, and 10% horse serum, 5% fetal calf serum (both charcoal-stripped for removing endogenous steroids) at 5% CO2 and 37°C. HEK-293 cells were obtained from LGC Promochem. Cells were grown in DMEM medium containing 10% fetal bovine serum (charcoal-stripped for removing endogenous steroids), 100 units/ml penicillin, and 0.1 mg/ml streptomycin, at 5% CO2 and […]. HEK-293 and PC12 cells were transfected with Lipofectamine 2000 (InVitrogen) according to manufacturer's instructions. Transfected cells were typically used on the 2nd day after transfection.
as §1

sympathetic SCG neurons = assay: NGF deprivation-induced apoptosis of superior cervical ganglia sympathetic neurons, Annexin V; format: cell-based, rat; conditions: 100 nM DHEA, medium lacking NGF with anti-NGF antiserum
Procedure: Cells were plated on collagen coated 24-well plates and cultured for 5 d prior to use.

[3] = test system: Shc, ERK1/2, and Akt kinases; assay: Phosphorylation of Shc, ERK1/2 and Akt kinases in PC12 cells (Western blot); format: cell-based; conditions: serum deprived naive PC12 cells, 10 min; 100 nM DHEA, 100 ng/ml NGF
Procedure: (§2) PC12 or HEK293 cells lysates were electrophoresed through a 12% SDS-polyacrylamide gel, and then proteins were transferred to nitrocellulose membranes, which were processed according to standard Western blotting procedures, as previously described. To detect protein levels, membranes were incubated with the appropriate antibodies: Bcl-2 (dilution 1∶500), phospho TrkA (dilution 1∶500), total TrkA (dilution1∶500), p75^NTR (dilution 1∶500), phospho Shc (dilution 1∶1000), total Shc (dilution 1∶1000), phospho Akt (dilution 1∶500), total Akt (dilution 1∶500), phospho ERK1/2 (dilution 1∶500), and total ERK1/2 (dilution 1∶500). Proteins were visualized using the ECL Western blotting kit (ECL Amersham Biosciences, UK), and blots were exposed to Kodak X-Omat AR films. A PC-based Image Analysis program was used to quantify the intensity of each band (Image Analysis, Inc., Ontario, Canada).
(§3) To normalize for protein content the blots were stripped and stained with GAPDH antibody (dilution 1∶1000); the concentration of each target protein was normalized versus GAPDH. Where phosphorylation of TrkA or kinases was measured, membranes were first probed for the phosphorylated form of the protein, then stripped, and probed for the total protein.

[4] = biological target: T2, p75^NTR with effectors TRAF6, RIP2, RhoGDI (Rattus norvegicus, UniProt P07174); assay: Co-immunoprecipitation of p75NTR with effectors TRAF6, RIP2, RhoGDI in co-transfected HEK293 cells; format: cell-based; conditions: co-transfected HEK293, 30 min; 100 nM DHEA, 100 ng/ml NGF
T2 construct: expressed in transfected cells; host or cells: HEK293
T2 sequence (P07174 30-425): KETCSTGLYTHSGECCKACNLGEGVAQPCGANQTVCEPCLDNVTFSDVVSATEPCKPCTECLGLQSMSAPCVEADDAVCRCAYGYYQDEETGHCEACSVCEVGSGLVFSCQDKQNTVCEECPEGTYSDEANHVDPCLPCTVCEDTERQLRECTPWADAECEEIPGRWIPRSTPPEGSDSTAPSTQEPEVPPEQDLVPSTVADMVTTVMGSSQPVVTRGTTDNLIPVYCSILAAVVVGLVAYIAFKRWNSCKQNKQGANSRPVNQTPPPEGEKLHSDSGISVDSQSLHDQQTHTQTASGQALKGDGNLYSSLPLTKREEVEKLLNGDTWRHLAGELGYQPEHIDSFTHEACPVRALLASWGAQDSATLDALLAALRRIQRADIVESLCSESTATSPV
Procedure: (§4) HEK293 cells were transfected with the appropriate plasmids (TrkA, p75^NTR, RIP2, TRAF-6, and RhoGDI) by using Lipofectamine 2000 (Invitrogen). Cells were harvested 48 h after transfection and suspended in lysis buffer (50 mM Tris-HCl, 0.15 M NaCl, 1% Triton-X100, pH 7.4) supplemented with protease inhibitors. Lysates were precleared for 1 h with Protein A-Sepharose beads (Amersham) and immunoprecipitated with the appropriate antibody (pTyr, Flag, or c-myc) overnight at 4°C. Protein A Sepharose beads were incubated with the lysates for 4 h at 4°C with gentle shaking. […] Beads were collected by centrifugation, washed four times with lysis buffer, and resuspended in SDS loading buffer. Proteins were separated by SDS/PAGE, followed by immunoblotting with specific antibodies.

TrkA [5] = assay: TrkA protein levels in serum deprived PC12 cells (immunoblotting); format: cell-based; conditions: serum deprived PC12, 12 to 48 h; 100 nM DHEA, 100 ng/ml NGF; n = 5, p<0.01
Procedure: as §2, §3

p75^NTR [6] = assay: p75NTR protein levels in serum deprived PC12 cells (immunoblotting); format: cell-based; conditions: serum deprived PC12, between 24 and 48 h; 100 nM DHEA, 100 ng/ml NGF; n = 5, p<0.01
Procedure: as §2, §3

TrkA [7] = biological target: T3, TrkA (Rattus norvegicus, UniProt P35739); assay: [3H]-DHEA saturation binding to membranes of HEK293 cells transfected with TrkA cDNA; design: expressed in transfected cells; host or cells: HEK293; conditions: KD of [3H]-DHEA binding (Scatchard analysis), n = 3
T3 sequence (P35739 33-799): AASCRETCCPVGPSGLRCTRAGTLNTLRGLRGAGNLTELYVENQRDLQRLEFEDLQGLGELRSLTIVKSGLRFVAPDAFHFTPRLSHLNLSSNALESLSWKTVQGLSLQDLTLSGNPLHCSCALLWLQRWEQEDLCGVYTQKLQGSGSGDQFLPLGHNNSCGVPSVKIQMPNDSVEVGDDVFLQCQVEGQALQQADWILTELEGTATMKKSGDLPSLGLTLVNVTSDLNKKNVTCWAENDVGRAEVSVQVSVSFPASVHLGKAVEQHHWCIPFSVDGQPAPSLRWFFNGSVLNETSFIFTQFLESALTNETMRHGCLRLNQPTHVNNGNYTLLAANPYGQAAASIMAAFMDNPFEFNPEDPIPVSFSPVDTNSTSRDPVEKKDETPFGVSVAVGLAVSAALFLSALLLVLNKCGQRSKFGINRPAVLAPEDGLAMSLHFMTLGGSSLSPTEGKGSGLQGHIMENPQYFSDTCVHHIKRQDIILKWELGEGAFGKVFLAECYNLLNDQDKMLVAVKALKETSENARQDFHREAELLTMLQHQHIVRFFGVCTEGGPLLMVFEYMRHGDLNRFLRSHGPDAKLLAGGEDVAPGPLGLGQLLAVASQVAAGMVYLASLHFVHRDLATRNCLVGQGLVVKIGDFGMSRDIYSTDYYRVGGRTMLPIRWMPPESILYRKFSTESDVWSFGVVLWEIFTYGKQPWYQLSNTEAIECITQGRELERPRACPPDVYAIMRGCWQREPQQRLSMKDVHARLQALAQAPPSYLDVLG

TrkA [8] = biological target: T3, TrkA; assay: [125I]-NGF displacement, HEK293^TrkA cell membranes; format: binding; design: expressed in transfected cells; host or cells: HEK293; conditions: unpublished data
TrkA [9] = biological target: T3, TrkA; assay: TrkA phosphorylation in HEK293^TrkA transfectants (anti-tyrosine IP, Western blot); format: cell-based; design: expressed in transfected cells; host or cells: HEK293; conditions: 10 min (and 20 min), steroids 100 nM, NGF 100 ng/ml
Procedure: as §4, §2, §3

[10] = test system: TrkA positive sensory neurons of dorsal root ganglia; assay: Apoptotic loss of sensory neurons in dorsal root ganglia of NGF null mouse embryos; conditions: ngf−/− embryos at E14, mothers treated daily with DHEA 2 mg
Procedure: ngf+/− mice [13] were obtained from the Jackson Laboratory and maintained on C57BL/6 background. […] Animals were housed in cages maintained under a constant 12 h light–dark cycle at 21–23°C, with free access to food and tap water.
Mice heterozygous for the NGF null mutation were interbred to obtain mice homozygous for the NGF gene disruption and the first day of gestation determined by the discovery of a copulation plug. The mothers were treated daily with a subcutaneous injection of DHEA (2 mg/day) or vehicle (4.5% ethanol in 0.9% saline) starting from the third day after gestation. Animals were collected at E14. At the day of collection the mothers were deeply anesthetized with sodium pentobarbital (Dolethal 0.7 ml/kg i.p.) followed by transcardial perfusion with saline solution containing heparin for about 7 min, and with 4% PFA, 15% Picric Acid, 0.05% GA in phosphate buffer 0.1 M, for another 7 min. After the perfusion the embryos were collected and maintained in the same fixative overnight at 4°C. Embryos were then washed in 0.1 M phosphate buffer and cryoprotected by using 10% sucrose followed by 20% sucrose overnight at 4°C. Finally, embryos were frozen in OCT in iso-pentane over liquid nitrogen for 5 min and the frozen tissues were stored for later use at −80°C. The samples were sectioned (20 µm) and mounted onto Superfrost plus slides (Menzel-Glaser J1800AMNZ). Slides were left to air-dry overnight at room temperature (RT) and were then either used immediately or were fixed in cold acetone for 1 min and stored at −80°C for later use.
Stored or fresh slides were fixed for 15 min in cold acetone at 4°C and left to dry for 10 min at room temperature. They were then washed in PB 0.1 M, then in TBS, and incubated for 45 min with 10% horse serum in TBS-T 0.1%. […] Sections were incubated for 4 h at RT and overnight at 4°C; they were then washed in TBS-T 0.1% and the anti-rabbit secondary antibodies (Alexa Fluor 488 and Alexa Fluor 546, 1∶1000 in TBS-T 0.1%) were added for 6 h at RT. […]

TrkA [11] = biological target: T3, TrkA; assay: Tyr490 TrkA phosphorylation in naive PC12 cells (Western blot); format: cell-based; design: PC12 cells, endogenously expressing TrkA receptors; endogenous in cells; host or cells: PC12; conditions: 10 min, DHEA 100 nM, NGF 100 ng/ml
Procedure: as §2, §3

p75^NTR [12] = biological target: T1, p75^NTR; assay: Heterologous [3H]-DHEA displacement, HEK293^p75NTR cell membranes; format: binding; conditions: HEK293^p75NTR membranes
TrkA [13] = biological target: T3, TrkA; assay: Heterologous [3H]-DHEA displacement, HEK293^TrkA cell membranes; format: binding; design: expressed in transfected cells; host or cells: HEK293; conditions: HEK293^TrkA membranes
TrkA receptor = conditions: extracellular and cytoplasmic juxtamembrane domains of TrkA; read-out: Kd of binding to TrkA receptor; cited from earlier work
[14] = 1 nM [3H]-DHEA, read-out: IC50 of [3H]-DHEA displacement

SMILES: C[C@]12CC[C@H](O)CC1=CC[C@@H]1[C@@H]2CC[C@]2(C)C(=O)CC[C@@H]12 [DHEA, dehydroepiandrosterone]
- Kd (p75^NTR [1]; 25°C for 30 min): 5.6 ± 0.55 nM
- Kd (p75^NTR [1]; overnight incubation at 4°C): 5.9 ± 1.7 nM
- Kd (PC12 cell membranes): 1.07 ± 0.43 nM
- displacement of [125I]-NGF binding (in words) (p75^NTR [2]): unable to effectively displace
- increase of apoptosis (% of difference from serum supplemented cells) (PC12 cells): 6%±1.4%
- effect on apoptosis of nnr5 cells (nnr5 cells): induced apoptosis
- effect on apoptotic sympathetic neurons after NGF withdrawal (sympathetic SCG neurons): effectively compensated for NGF by decreasing the levels of apoptotic neurons
- phosphorylation of Shc, ERK1/2, and Akt kinases [3]: strongly increased
- association of p75NTR with effectors TRAF6 and RIP2 [4]: efficiently induced the association
- dissociation of RhoGDI from p75NTR receptors [4]: facilitating the dissociation
- TrkA receptor levels (TrkA [5]): significantly increased
- p75NTR receptor levels (p75^NTR [6]): significantly decreased
- Kd (TrkA [7]; 25°C for 30 min): 7.4 ± 1.75 nM
- Kd (TrkA [7]; overnight incubation at 4°C): 7.8 ± 3.1 nM
- displacement of [125I]-NGF binding (in words) (TrkA [8]): unable to effectively displace
- phosphorylation of TrkA (TrkA [9]): strongly increased
- Fluoro Jade C and Caspase 3 positive neurons in the DRG [10]: significantly reduced
- TUNEL-positive apoptotic neurons in the DRG [10]: decreased to levels shown in ngf+/− embryos
- TrkA positive staining in the DRG [10]: significant increase
- phosphorylation of TrkA (Tyr490) (TrkA [11]): strongly induced

SMILES: C[C@]12CC[C@H](OS(=O)(=O)O)CC1=CC[C@@H]1[C@@H]2CC[C@]2(C)C(=O)CC[C@@H]12 [DHEAS, dehydroepiandrosterone sulfate]
- IC50 (p75^NTR [12]; [14]): 8.1 ± 1.2 nM
- IC50 (TrkA [13]; [14]): 6.1 ± 1.1 nM
- phosphorylation of TrkA (TrkA [9]): rapidly induced

SMILES: C[C@]12CC[C@@H]3c4ccc(O)cc4CC[C@H]3[C@@H]1CC[C@@H]2O [Estradiol]
- displacement of [3H]-DHEA binding (in words) (p75^NTR [12]; competitor up to 1000 nM): failed to displace
- displacement of [3H]-DHEA binding (in words) (TrkA [13]; competitor 0.1 to 1000 nM): failed to displace

SMILES: CN(C)CCC=C1c2ccccc2CCc2ccccc21 [amitriptyline]
- Kd (TrkA receptor): 3000 nM
